Reference: patent US9139581B2 (PORTOLA PHARMACEUTICALS, INC., priority 2008, dated 2015)
Like-named read-outs stand apart in the source and are kept apart here.

Columns and labels:
JAK1 = target: T1, JAK1 (Homo sapiens, UniProt P23458); experiment: Millipore Upstate KinaseProfiler screening, JAK1 catalytic activity; format: biochemical; conditions: Table 5; read-out: Inhibition (IC50%) of catalytic activity of JAK 1
T1 construct: purchased Millipore Upstate KinaseProfiler

JAK2 = target: T2, JAK2 (Homo sapiens, UniProt O60674); experiment: Millipore Upstate KinaseProfiler screening, JAK2 catalytic activity; format: biochemical; conditions: Table 5; read-out: Inhibition (IC50%) of catalytic activity of JAK 2
T2 construct: purchased Millipore Upstate KinaseProfiler
T2 sequence (O60674 whole entry): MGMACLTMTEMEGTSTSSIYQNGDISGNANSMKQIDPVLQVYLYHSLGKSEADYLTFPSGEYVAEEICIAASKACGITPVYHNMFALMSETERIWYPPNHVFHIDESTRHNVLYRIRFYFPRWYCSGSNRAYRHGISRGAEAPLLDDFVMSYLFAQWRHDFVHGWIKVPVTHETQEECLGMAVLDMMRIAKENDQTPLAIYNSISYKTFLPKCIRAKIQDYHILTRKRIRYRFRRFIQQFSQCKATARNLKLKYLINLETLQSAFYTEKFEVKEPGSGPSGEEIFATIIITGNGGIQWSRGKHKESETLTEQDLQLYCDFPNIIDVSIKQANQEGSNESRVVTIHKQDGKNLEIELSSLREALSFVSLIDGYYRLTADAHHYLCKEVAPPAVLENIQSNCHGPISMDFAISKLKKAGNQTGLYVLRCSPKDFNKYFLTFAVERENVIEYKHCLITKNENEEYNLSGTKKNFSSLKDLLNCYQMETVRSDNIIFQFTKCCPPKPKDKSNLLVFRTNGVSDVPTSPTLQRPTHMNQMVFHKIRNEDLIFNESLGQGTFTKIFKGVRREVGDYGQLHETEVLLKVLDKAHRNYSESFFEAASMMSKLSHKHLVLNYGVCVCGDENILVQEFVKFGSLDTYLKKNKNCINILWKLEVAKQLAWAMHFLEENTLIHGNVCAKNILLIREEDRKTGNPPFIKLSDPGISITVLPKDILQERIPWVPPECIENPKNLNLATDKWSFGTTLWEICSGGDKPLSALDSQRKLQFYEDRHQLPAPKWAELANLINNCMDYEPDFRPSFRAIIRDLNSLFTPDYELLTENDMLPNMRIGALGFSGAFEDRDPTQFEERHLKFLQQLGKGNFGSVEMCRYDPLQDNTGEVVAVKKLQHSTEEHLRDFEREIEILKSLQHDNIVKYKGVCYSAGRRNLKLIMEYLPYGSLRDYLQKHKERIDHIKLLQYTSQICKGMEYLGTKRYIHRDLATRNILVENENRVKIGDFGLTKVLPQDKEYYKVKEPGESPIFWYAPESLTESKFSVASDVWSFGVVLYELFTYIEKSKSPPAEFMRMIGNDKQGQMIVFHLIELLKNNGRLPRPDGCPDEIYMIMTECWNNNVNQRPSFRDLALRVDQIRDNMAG

Purified human JAK3 = target: T3, Purified human JAK3 (Homo sapiens, UniProt P52333); experiment: Millipore Upstate KinaseProfiler screening, JAK3 catalytic activity; format: biochemical; conditions: for IC50: Table 5, read-out: Inhibition (IC50%) of catalytic activity of JAK 3; for inhibition at 0.3 µM: 0.3 μM compound
T3 construct: purchased Millipore Upstate KinaseProfiler; host or cells: insect cells
T3 sequence (P52333 781-1124 limits assumed): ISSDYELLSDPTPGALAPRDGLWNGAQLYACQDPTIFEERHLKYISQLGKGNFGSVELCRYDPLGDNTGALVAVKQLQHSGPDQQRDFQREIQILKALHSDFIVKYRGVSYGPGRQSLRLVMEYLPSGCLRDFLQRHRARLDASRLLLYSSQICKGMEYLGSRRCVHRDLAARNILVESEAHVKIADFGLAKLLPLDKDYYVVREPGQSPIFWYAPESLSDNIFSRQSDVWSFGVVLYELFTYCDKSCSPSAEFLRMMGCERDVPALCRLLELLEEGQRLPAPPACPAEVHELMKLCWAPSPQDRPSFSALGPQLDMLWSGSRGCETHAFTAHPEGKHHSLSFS
Description: This assay is a direct measurement of the effect of compound on the catalytic activity of JAK3. Purified human JAK3 (GenBank AF513860) sequence (residue 781-C terminus) was obtained from insect cells. The catalytic hydrolysis of ATP is measured using a radiometric filter binding method. Incubation of kinase with ^33-[P]ATP and substrate leads to incorporation of ^33[P] into the substrate which can then be separated from the other reaction components by filtration. Assays were performed using 10 μM ATP and in the absence or presence of 1, 0.3, or 0.1 μM compound. Activity was expressed as % of inhibition of control.
In the table below, activity in the Jak assays is provided as follows: +++++=IC50<0.0010 μM; ++++=0.0010 μM<IC50<0.010 μM, +++=0.010 μM<IC50<0.10 μM, ++=0.10 μM<IC50<1 μM, +=IC50>1 μM.

[1] = tested on: human platelet-rich plasma (PRP); experiment: Inhibition of Convulxin-mediated platelet aggregation in vitro (PRP); format: cell-based; conditions: Table 4, Convulxin-induced aggregation in human PRP, unit inferred
Description: The ability for candidate molecules to inhibit syk-mediated platelet functions are tested by measuring the inhibition the GPVI-specific agonist Convulxin-induced human platelet calcium-mobilization or aggregation. Calcium-mobilization is assessed in human washed platelets in a 96-well microtiter format.
Inhibition of Convulxin-Mediated Platelet Aggregation In Vitro
Platelet-rich plasma (PRP) is prepared by centrifugation of whole blood at 160×g for 20 minutes at room temperature. The PRP layer is removed, transferred to a new tube, and the platelet count is adjusted, if advantageous, to achieve a platelet concentration of ˜3×10^8 platelets/ml using platelet-poor plasma (PPP). PPP is prepared by centrifugation of the remaining blood sample (after removal of PRP) for 20 minutes at 800×g. This preparation of PRP can subsequently be used for aggregation assays in either a 96-well plate or standard cuvette aggregometry.
Inhibition of Convulxin-induced aggregation is determined in 96-well flat-bottom microtiter plates using a microtiter plate shaker and plate reader similar to the procedure described by Frantantoni et al., Am. J. Clin. Pathol. […] All steps are performed at room temperature. For 96-well plate aggregation using platelet-rich plasma (PRP), the total reaction volume of 0.2 ml/well includes 190 μl of PRP (˜3×10^8 platelets/ml, see above), and 5 μl of either serial dilution of test compounds in 30% DMSO or buffer (for control wells). After 20 minutes preincubation at room temperature 5 μl of 320 ng/ml Convulxin agonist solution is added to each well to give a final concentration of 8 ng/ml Convulxin. The plates are then agitated for 5 min on a microtiter plate shaker and the 5 minute reading is obtained in the microtitre plate reader (Softmax, Molecular Devices, Menlo Park, Calif.). Aggregation is calculated from the decrease of OD at 650 nm at t=5 minutes. IC50s were derived by non-linear regression analysis.
Inhibition of Convulxin-induced aggregation was also determined for cuvette light transmittance aggregation assays, serial dilutions (1:2) of test compounds were prepared in 30% DMSO in a 96 well V-bottom plate (final DMSO concentration in the cuvette was 0.3%). […] IC50s were derived by non-linear regression analysis.

[2] = target: T4, full length active recombinant SYK enzyme (Homo sapiens, UniProt P43405); experiment: Inhibition of Syk tyrosine phosphorylation activity (LANCE TR-FRET); format: biochemical; conditions: 1 nM SYK, 100 μM ATP
T4 construct: full length active recombinant SYK enzyme (Millipore, Calif.); purchased Millipore
Summary of the method: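 The reaction is quenched with buffer holding Eu-anti-phosphotyrosine and streptavidin-APC, and detection runs 1 hr at room temperature. TR-FRET is read and IC50s come from non-linear regression.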

[3] = Table 3, read-out: Syk IC50 code

T1 sequence (P23458 whole entry): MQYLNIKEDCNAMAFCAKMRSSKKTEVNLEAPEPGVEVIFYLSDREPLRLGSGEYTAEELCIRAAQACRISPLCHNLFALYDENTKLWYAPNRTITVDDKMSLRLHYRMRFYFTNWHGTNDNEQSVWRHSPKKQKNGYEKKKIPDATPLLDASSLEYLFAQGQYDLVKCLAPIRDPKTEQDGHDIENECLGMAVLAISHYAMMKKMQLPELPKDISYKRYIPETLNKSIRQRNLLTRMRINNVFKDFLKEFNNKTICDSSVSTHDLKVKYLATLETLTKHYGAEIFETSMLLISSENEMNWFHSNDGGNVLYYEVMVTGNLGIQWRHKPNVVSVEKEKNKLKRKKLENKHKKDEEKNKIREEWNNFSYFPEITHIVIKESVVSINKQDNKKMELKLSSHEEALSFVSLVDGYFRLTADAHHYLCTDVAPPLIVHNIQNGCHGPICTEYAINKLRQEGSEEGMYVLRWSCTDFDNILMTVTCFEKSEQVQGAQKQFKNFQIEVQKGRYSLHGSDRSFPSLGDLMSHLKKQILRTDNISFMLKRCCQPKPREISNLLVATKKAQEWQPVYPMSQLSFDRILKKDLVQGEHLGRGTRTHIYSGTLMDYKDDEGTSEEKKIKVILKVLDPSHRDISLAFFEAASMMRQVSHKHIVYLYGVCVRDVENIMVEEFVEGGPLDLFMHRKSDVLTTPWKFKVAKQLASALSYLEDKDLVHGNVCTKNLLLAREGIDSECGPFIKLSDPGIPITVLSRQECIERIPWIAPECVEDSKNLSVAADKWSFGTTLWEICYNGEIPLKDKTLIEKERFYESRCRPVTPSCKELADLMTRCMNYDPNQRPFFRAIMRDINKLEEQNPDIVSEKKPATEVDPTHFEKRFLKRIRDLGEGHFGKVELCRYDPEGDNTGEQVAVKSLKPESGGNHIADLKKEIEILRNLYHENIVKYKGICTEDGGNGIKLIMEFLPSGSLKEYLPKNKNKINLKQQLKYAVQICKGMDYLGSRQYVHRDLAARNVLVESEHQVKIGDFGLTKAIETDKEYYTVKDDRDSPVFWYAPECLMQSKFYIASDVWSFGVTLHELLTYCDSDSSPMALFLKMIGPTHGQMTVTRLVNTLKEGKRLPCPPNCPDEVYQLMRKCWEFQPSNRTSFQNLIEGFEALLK

Structure (SMILES) | IC50 [2, 3] [µM] | IC50 [1] [µM] | IC50 ([2]; Table 4, read-out: syk IC50) [µM] | further results
N#Cc1c[nH]c2nc(Nc3ccc(S(N)(=O)=O)cc3)nc(NC3CC3)c12 [drawing 210] | – | – | – | IC50 (JAK1): 0.01 to 0.1 µM; IC50 (JAK2): 0.01 to 0.1 µM; IC50 (Purified human JAK3): 0.01 to 0.1 µM
CC(=O)N1CCN(c2ccc(Nc3nc(N4CCC[C@H](N)C4)c4cc[nH]c4n3)cc2)CC1 [(S)-1-(4-(4-(4-(3-aminopiperidin-1-yl)-7H-pyrrolo[2,3-d]pyrimidin-2-ylamino)phenyl)piperazin-1-yl)ethanone] | – | 13.8 | 0.1 to 1 | –
NC(=O)c1c[nH]c2nc(Nc3ccc4c(c3)CCC(=O)N4)nc(NC3CC3)c12 [drawing 211] | – | – | – | IC50 (JAK1): > 1 µM; IC50 (JAK2): 0.1 to 1 µM; IC50 (Purified human JAK3): > 1 µM
N#Cc1c[nH]c2nc(Nc3ccc4c(c3)CCC(=O)N4)nc(NC3CC3)c12 [drawing 209] | – | – | – | IC50 (JAK1): 0.01 to 0.1 µM; IC50 (JAK2): 0.01 to 0.1 µM; IC50 (Purified human JAK3): 0.01 to 0.1 µM
NC(=O)C1CCCN(c2nc(Nc3ccc(N4CCNCC4)cc3)nc3[nH]ccc23)C1 (stereo not shown) [Example 8, 1-(2-(4-(piperazin-1-yl)phenylamino)-7H-pyrrolo[2,3-d]pyrimidin-4-yl)piperidine-3-carboxamide] | – | 25.3 | 0.1 to 1 | –
CC(=O)N1CCN(c2ccc(Nc3nc(N4CCC(CN)CC4)c4nc[nH]c4n3)cc2)CC1 [Example 15, 1-(4-(4-(6-(4-(aminomethyl)piperidin-1-yl)-9H-purin-2-ylamino)phenyl)piperazin-1-yl)ethanone] | 0.01 to 0.1 | 50 | 0.01 to 0.1 | –
NCC1CCN(c2nc(Nc3ccc(C(N)=O)cc3)ncc2F)CC1 [Example 31, 4-(4-(4-(aminomethyl)piperidin-1-yl)-5-fluoropyrimidin-2-ylamino)benzamide] | – | 0.346 | 0.01 to 0.1 | –
NCC1CCN(c2nc(Nc3ccc(N4CCNCC4)cc3)nc3[nH]ccc23)CC1 [Example 10, 4-(4-(aminomethyl)piperidin-1-yl)-N-(4-(piperazin-1-yl)phenyl)-7H-pyrrolo[2,3-d]pyrimidin-2-amine] | – | 33.2 | 0.001 to 0.01 | –
CC(=O)N(C)c1ccc(Nc2ncc(F)c(N3CCC(CN)CC3)n2)cc1 [Example 29, N-(4-(4-(4-(aminomethyl)piperidin-1-yl)-5-fluoropyrimidin-2-ylamino)phenyl)-N-methylacetamide] | – | 0.316 | 0.01 to 0.1 | –
CC(=O)N1CCN(c2ccc(Nc3nc(N4CCC(CN)CC4)c4c(C#N)c[nH]c4n3)cc2)CC1 [Example 14, 2-(4-(4-acetylpiperazin-1-yl)phenylamino)-4-(4-(aminomethyl)piperidin-1-yl)-7H-pyrrolo[2,3-d]pyrimidine-5-carbonitrile] | 0.01 to 0.1 | 50 | 0.01 to 0.1 | –
CC(=O)N1CCN(c2ccc(Nc3nc(N4CCC(CN)CC4)c4cc[nH]c4n3)cc2)CC1 [Example 11, 1-(4-(4-(4-(4-(aminomethyl)piperidin-1-yl)-7H-pyrrolo[2,3-d]pyrimidin-2-ylamino)phenyl)piperazin-1-yl)ethanone] | – | 5.28 | 0.001 to 0.01 | –
CC(=O)N1CCN(c2ccc(Nc3ncc(F)c(N4CCC(CN)CC4)n3)cc2)CC1 [Example 18, 1-(4-(4-(4-(4-(aminomethyl)piperidin-1-yl)-5-fluoropyrimidin-2-ylamino)phenyl)piperazin-1-yl)ethanone] | – | 0.195 | 0.01 to 0.1 | –
CN(C)C(=O)C1CCN(c2ccc(Nc3nc(NC4CC4)c4cc[nH]c4n3)cc2)CC1 | – | – | – | inhibition at 0.3 µM (Purified human JAK3; 10 μM ATP): 82%
c1cc2c(NC3CC3)nc(Nc3ccc4cn[nH]c4c3)nc2[nH]1 [drawing 213] | – | – | – | inhibition at 0.3 µM (Purified human JAK3; 10 μM ATP): 41%; inhibition at 1 µM (Purified human JAK3; 1 μM compound, 10 μM ATP): 77%
NCC1CCN(c2nc(Nc3ccc4c(c3)CCC(=O)N4)ncc2F)CC1 [Example 33, 6-(4-(4-(aminomethyl)piperidin-1-yl)-5-fluoropyrimidin-2-ylamino)-3,4-dihydroquinolin-2(1H)-one] | – | 0.336 | 0.01 to 0.1 | –
NCC1CCN(c2nc(Nc3ccc4cn[nH]c4c3)ncc2F)CC1 [Example 16, N-(4-(4-(aminomethyl)piperidin-1-yl)-5-fluoropyrimidin-2-yl)-1H-indazol-6-amine] | – | 0.295 | 0.01 to 0.1 | –
CC(=O)N1CCN(c2ccc(Nc3ncc(F)c(N4CCCCC4CN)n3)cc2)CC1 (stereo not shown) [Example 34, 1-(4-(4-(4-(2-(aminomethyl)piperidin-1-yl)-5-fluoropyrimidin-2-ylamino)phenyl)piperazin-1-yl)ethanone] | – | – | > 1 | –
CC(=O)N1CCN(c2ccc(Nc3nc(N4CCCC(C(N)=O)C4)c4cc[nH]c4n3)cc2)CC1 (stereo not shown) [Example 9, 1-(2-(4-(4-acetylpiperazin-1-yl)phenylamino)-7H-pyrrolo[2,3-d]pyrimidin-4-yl)piperidine-3-carboxamide] | – | 12.3 | 0.1 to 1 | –
CC(C)(C)OC(=O)NCC1CCCCN1c1nc(Nc2ccc3cn[nH]c3c2)ncc1F (stereo not shown) [Example 35, tert-butyl (1-(2-(1H-indazol-6-ylamino)-5-fluoropyrimidin-4-yl)piperidin-2-yl)methylcarbamate] | – | – | > 1 | –

Further lines, with some results ahead:

IC50 [2, 3] [µM] | Structure (SMILES) | IC50 [1] [µM] | IC50 ([2]; Table 4, read-out: syk IC50) [µM] | further results
0.1 to 1 | CN1C(=O)CCc2cc(Nc3nc(Nc4ccc(F)cc4)c4c(-c5ccncc5)c[nH]c4n3)ccc21 [Example 112, 6-(4-(4-fluorophenylamino)-5-(pyridin-4-yl)-7H-pyrrolo[2,3-d]pyrimidin-2-ylamino)-1-methyl-3,4-dihydroquinolin-2(1H)-one] | – | – | –
0.1 to 1 | CC(=O)N1CCN(c2ccc(Nc3nc(N[C@@H](C)CO)c4cc[nH]c4n3)cc2)CC1 [Example 99A, (S)-1-(4-(4-(4-(1-hydroxypropan-2-ylamino)-7H-pyrrolo[2,3-d]pyrimidin-2-ylamino)phenyl)piperazin-1-yl)ethanone] | – | – | –
0.01 to 0.1 | NS(=O)(=O)c1cccc(Nc2nc(Nc3ccc(N4CCNCC4)cc3)nc3[nH]ccc23)c1 [Example 96B, 3-(2-(4-(piperazin-1-yl)phenylamino)-7H-pyrrolo[2,3-d]pyrimidin-4-ylamino)benzenesulfonamide] | – | – | –
0.1 to 1 | COCCNc1nc(Nc2ccc(N3CCN(C(C)=O)CC3)cc2)nc2[nH]ccc12 [Example 90, 1-(4-(4-(4-(2-methoxyethylamino)-7H-pyrrolo[2,3-d]pyrimidin-2-ylamino)phenyl)piperazin-1-yl)ethanone] | – | – | –
> 1 | CC(C)(C)OC(=O)N1CCC(Nc2nc(Nc3ccc4cn[nH]c4c3)nc3[nH]ccc23)CC1 [Example 57, tert-butyl 4-(2-(1H-indazol-6-ylamino)-7H-pyrrolo[2,3-d]pyrimidin-4-ylamino)piperidine-1-carboxylate] | – | – | –
0.01 to 0.1 | CNC(=O)COc1cccc(Nc2nc(Nc3ccc4cn[nH]c4c3)nc3[nH]ccc23)c1 [Example 78] | – | – | –
0.01 to 0.1 | CC(=O)N(C)c1ccc(Nc2nc(NCCCCN)c3cc[nH]c3n2)cc1 [Example 62, N-(4-(4-(4-aminobutylamino)-7H-pyrrolo[2,3-d]pyrimidin-2-ylamino)phenyl)-N-methylacetamide] | – | – | –
> 1 | CCCCOC(=O)CC1CCN(c2nc(Nc3ccc4c(c3)CCC(=O)N4)nc3[nH]ccc23)CC1 [Example 119, Butyl 2-(1-(2-(2-oxo-1,2,3,4-tetrahydroquinolin-6-ylamino)-7H-pyrrolo[2,3-d]pyrimidin-4-yl)piperidin-4-yl)acetate] | – | – | –
0.1 to 1 | CN(C(=O)C1CC1)c1ccc(Nc2nc(NC3CCC3)c3cc[nH]c3n2)cc1 [Example 80, N-(4-(4-(cyclobutylamino)-7H-pyrrolo[2,3-d]pyrimidin-2-ylamino)phenyl)-N-methylcyclopropanecarboxamide] | – | – | –
